Source: BigSolDB 2.1

Cc1c(OCC(F)(F)F)ccnc1CS(=O)c1nc2ccccc2[nH]1 (stereo unspecified)
solubility (mole fraction) (in 2-butanone, 283.15 K): 0.00289
solubility (mole fraction) (in 2-butanone, 288.15 K): 0.00349
solubility (mole fraction) (in 2-butanone, 293.15 K): 0.00412
solubility (mole fraction) (in 2-butanone, 298.15 K): 0.00489
solubility (mole fraction) (in 2-butanone, 303.15 K): 0.00578
solubility (mole fraction) (in 2-butanone, 308.15 K): 0.00697
solubility (mole fraction) (in 2-butanone, 313.15 K): 0.0083
solubility (mole fraction) (in MIBK, 283.15 K): 0.0013
solubility (mole fraction) (in MIBK, 288.15 K): 0.00154
solubility (mole fraction) (in MIBK, 293.15 K): 0.00183
solubility (mole fraction) (in MIBK, 298.15 K): 0.00216
solubility (mole fraction) (in MIBK, 303.15 K): 0.00255
solubility (mole fraction) (in MIBK, 308.15 K): 0.00307
solubility (mole fraction) (in MIBK, 313.15 K): 0.00362
solubility (mole fraction) (in acetone, 283.15 K): 0.00249
solubility (mole fraction) (in acetone, 290.15 K): 0.0031
solubility (mole fraction) (in acetone, 297.15 K): 0.00395
solubility (mole fraction) (in acetone, 304.15 K): 0.00494
solubility (mole fraction) (in acetone, 311.15 K): 0.00626
solubility (mole fraction) (in acetone, 318.15 K): 0.00801
solubility (mole fraction) (in ethyl acetate, 283.15 K): 0.00137
solubility (mole fraction) (in ethyl acetate, 288.15 K): 0.00164
solubility (mole fraction) (in ethyl acetate, 293.15 K): 0.002
solubility (mole fraction) (in ethyl acetate, 298.15 K): 0.00245
solubility (mole fraction) (in ethyl acetate, 303.15 K): 0.00291
solubility (mole fraction) (in ethyl acetate, 308.15 K): 0.00343
solubility (mole fraction) (in ethyl acetate, 313.15 K): 0.00416
solubility (mole fraction) (in ethyl acetate, 318.15 K): 0.00469
solubility (mole fraction) (in isobutyl acetate, 283.15 K): 0.000784
solubility (mole fraction) (in isobutyl acetate, 288.15 K): 0.000965
solubility (mole fraction) (in isobutyl acetate, 293.15 K): 0.00117
solubility (mole fraction) (in isobutyl acetate, 298.15 K): 0.00136
solubility (mole fraction) (in isobutyl acetate, 303.15 K): 0.00161
solubility (mole fraction) (in isobutyl acetate, 308.15 K): 0.00193
solubility (mole fraction) (in isobutyl acetate, 313.15 K): 0.00228
solubility (mole fraction) (in isopropanol, 283.15 K): 0.00082
solubility (mole fraction) (in isopropanol, 288.15 K): 0.000922
solubility (mole fraction) (in isopropanol, 293.15 K): 0.00124
solubility (mole fraction) (in isopropanol, 298.15 K): 0.00161
solubility (mole fraction) (in isopropanol, 303.15 K): 0.00202
solubility (mole fraction) (in isopropanol, 308.15 K): 0.00261
solubility (mole fraction) (in isopropanol, 313.15 K): 0.00333
solubility (mole fraction) (in isopropanol, 318.15 K): 0.00422
solubility (mole fraction) (in n-butanol, 283.15 K): 0.0012
solubility (mole fraction) (in n-butanol, 288.15 K): 0.00166
solubility (mole fraction) (in n-butanol, 293.15 K): 0.00215
solubility (mole fraction) (in n-butanol, 298.15 K): 0.0027
solubility (mole fraction) (in n-butanol, 303.15 K): 0.00336
solubility (mole fraction) (in n-butanol, 308.15 K): 0.00419
solubility (mole fraction) (in n-butanol, 313.15 K): 0.00515
solubility (mole fraction) (in n-butyl acetate, 283.15 K): 0.000987
solubility (mole fraction) (in n-butyl acetate, 288.15 K): 0.0012
solubility (mole fraction) (in n-butyl acetate, 293.15 K): 0.00144
solubility (mole fraction) (in n-butyl acetate, 298.15 K): 0.00172
solubility (mole fraction) (in n-butyl acetate, 303.15 K): 0.00195
solubility (mole fraction) (in n-butyl acetate, 308.15 K): 0.00232
solubility (mole fraction) (in n-butyl acetate, 313.15 K): 0.00271
solubility (mole fraction) (in n-pentanol, 283.15 K): 0.00138
solubility (mole fraction) (in n-pentanol, 288.15 K): 0.00184
solubility (mole fraction) (in n-pentanol, 293.15 K): 0.00227
solubility (mole fraction) (in n-pentanol, 298.15 K): 0.00281
solubility (mole fraction) (in n-pentanol, 303.15 K): 0.00344
solubility (mole fraction) (in n-pentanol, 308.15 K): 0.00412
solubility (mole fraction) (in n-pentanol, 313.15 K): 0.00518
solubility (mole fraction) (in n-propanol, 283.15 K): 0.00166
solubility (mole fraction) (in n-propanol, 288.15 K): 0.00206
solubility (mole fraction) (in n-propanol, 293.15 K): 0.0026
solubility (mole fraction) (in n-propanol, 298.15 K): 0.00314
solubility (mole fraction) (in n-propanol, 303.15 K): 0.00388
solubility (mole fraction) (in n-propanol, 308.15 K): 0.00468
solubility (mole fraction) (in n-propanol, 313.15 K): 0.00588
